# Active and inactive are the calls of the source. No rule for the calls is given here.
# System: CCRIS mutagenicity, Ames/micronucleus/aberration tests
# Test: CCRIS mutagenicity studies
# [1] = Test System: AMES SALMONELLA TYPHIMURIUM, Strain/Indicator: TA97, Metabolic Activation: NONE, Method: PREINCUBATION
# [2] = Test System: AMES SALMONELLA TYPHIMURIUM, Strain/Indicator: TA98, Metabolic Activation: NONE, Method: PREINCUBATION
# [3] = Test System: AMES SALMONELLA TYPHIMURIUM, Strain/Indicator: TA100, Metabolic Activation: NONE, Method: PREINCUBATION
# [4] = Test System: AMES SALMONELLA TYPHIMURIUM, Strain/Indicator: TA1535, Metabolic Activation: NONE, Method: PREINCUBATION
# [5] = Test System: AMES SALMONELLA TYPHIMURIUM, Strain/Indicator: TA1537, Metabolic Activation: NONE, Method: PREINCUBATION
# [6] = Test System: AMES SALMONELLA TYPHIMURIUM, Strain/Indicator: TA98, Metabolic Activation: NONE, Method: STANDARD PLATE
# [7] = Test System: AMES SALMONELLA TYPHIMURIUM, Strain/Indicator: TA100, Metabolic Activation: NONE, Method: STANDARD PLATE
smiles,measurement,setting,value
CCCCCCCCCC(=O)O,mutagenic call,"Test System: AMES SALMONELLA TYPHIMURIUM, Strain/Indicator: TA97, Metabolic Activation: HAMSTER, LIVER, S-9, AROCLOR 1254 (10 OR 30%), Method: PREINCUBATION",inactive; negative
same,mutagenic call,[1],inactive; negative
same,mutagenic call,"Test System: AMES SALMONELLA TYPHIMURIUM, Strain/Indicator: TA97, Metabolic Activation: RAT, LIVER, S-9, AROCLOR 1254 (10 OR 30%), Method: PREINCUBATION",inactive; negative
same,mutagenic call,"Test System: AMES SALMONELLA TYPHIMURIUM, Strain/Indicator: TA98, Metabolic Activation: HAMSTER, LIVER, S-9, AROCLOR 1254 (10 OR 30%), Method: PREINCUBATION",inactive; negative
same,mutagenic call,[2],inactive; negative
same,mutagenic call,"Test System: AMES SALMONELLA TYPHIMURIUM, Strain/Indicator: TA98, Metabolic Activation: RAT, LIVER, S-9, AROCLOR 1254 (10 OR 30%), Method: PREINCUBATION",inactive; negative
same,mutagenic call,"Test System: AMES SALMONELLA TYPHIMURIUM, Strain/Indicator: TA100, Metabolic Activation: HAMSTER, LIVER, S-9, AROCLOR 1254 (10 OR 30%), Method: PREINCUBATION",inactive; negative
same,mutagenic call,[3],inactive; negative
same,mutagenic call,"Test System: AMES SALMONELLA TYPHIMURIUM, Strain/Indicator: TA100, Metabolic Activation: RAT, LIVER, S-9, AROCLOR 1254 (10 OR 30%), Method: PREINCUBATION",inactive; negative
same,mutagenic call,"Test System: AMES SALMONELLA TYPHIMURIUM, Strain/Indicator: TA1535, Metabolic Activation: HAMSTER, LIVER, S-9, AROCLOR 1254 (10 OR 30%), Method: PREINCUBATION",inactive; negative
same,mutagenic call,[4],inactive; negative
same,mutagenic call,"Test System: AMES SALMONELLA TYPHIMURIUM, Strain/Indicator: TA1535, Metabolic Activation: RAT, LIVER, S-9, AROCLOR 1254 (10 OR 30%), Method: PREINCUBATION",inactive; negative
same,mutagenic call,"Test System: AMES SALMONELLA TYPHIMURIUM, Strain/Indicator: TA1537, Metabolic Activation: HAMSTER, LIVER, S-9, AROCLOR 1254 (10 OR 30%), Method: PREINCUBATION",inactive; negative
same,mutagenic call,[5],inactive; negative
same,mutagenic call,"Test System: AMES SALMONELLA TYPHIMURIUM, Strain/Indicator: TA1537, Metabolic Activation: RAT, LIVER, S-9, AROCLOR 1254 (10 OR 30%), Method: PREINCUBATION",inactive; negative
O=[N+]([O-])c1ccccc1CO,mutagenic call,[2],inactive; negative
same,mutagenic call,[3],inactive; negative
same,mutagenic call,"Test System: AMES SALMONELLA TYPHIMURIUM, Strain/Indicator: TA100, Metabolic Activation: RAT, LIVER, S-9, AROCLOR 1254, Method: PREINCUBATION",inactive; negative
Nc1ccc2ccccc2c1N=Nc1ccc([N+](=O)[O-])cc1,mutagenic call,"Test System: AMES SALMONELLA TYPHIMURIUM, Strain/Indicator: TA97, Metabolic Activation: HAMSTER, LIVER, S-9, AROCLOR 1254 (10%), Method: PREINCUBATION",active; positive
same,mutagenic call,[1],active; positive
same,mutagenic call,"Test System: AMES SALMONELLA TYPHIMURIUM, Strain/Indicator: TA97, Metabolic Activation: RAT, LIVER, S-9, AROCLOR 1254 (10%), Method: PREINCUBATION",active; positive
same,mutagenic call,"Test System: AMES SALMONELLA TYPHIMURIUM, Strain/Indicator: TA98, Metabolic Activation: HAMSTER, LIVER, S-9, AROCLOR 1254 (10%), Method: PREINCUBATION",active; positive
same,mutagenic call,[2],active; positive
same,mutagenic call,"Test System: AMES SALMONELLA TYPHIMURIUM, Strain/Indicator: TA98, Metabolic Activation: RAT, LIVER, S-9, AROCLOR 1254 (10%), Method: PREINCUBATION",active; positive
same,mutagenic call,"Test System: AMES SALMONELLA TYPHIMURIUM, Strain/Indicator: TA100, Metabolic Activation: HAMSTER, LIVER, S-9, AROCLOR 1254 (10%), Method: PREINCUBATION",active; positive
same,mutagenic call,[3],inactive; negative
same,mutagenic call,"Test System: AMES SALMONELLA TYPHIMURIUM, Strain/Indicator: TA100, Metabolic Activation: RAT, LIVER, S-9, AROCLOR 1254 (10%), Method: PREINCUBATION",active; positive
same,mutagenic call,"Test System: AMES SALMONELLA TYPHIMURIUM, Strain/Indicator: TA1535, Metabolic Activation: HAMSTER, LIVER, S-9, AROCLOR 1254 (10%), Method: PREINCUBATION",inactive; negative
same,mutagenic call,[4],inactive; negative
same,mutagenic call,"Test System: AMES SALMONELLA TYPHIMURIUM, Strain/Indicator: TA1535, Metabolic Activation: RAT, LIVER, S-9, AROCLOR 1254 (10%), Method: PREINCUBATION",inactive; negative
CC(C)C[C@@H]1NC(=O)CNC1=O,mutagenic call,[6],inactive; negative
same,mutagenic call,"Test System: AMES SALMONELLA TYPHIMURIUM, Strain/Indicator: TA98, Metabolic Activation: RAT, LIVER, S-9, AROCLOR 1254, Method: STANDARD PLATE",inactive; negative
same,mutagenic call,[7],inactive; negative
same,mutagenic call,"Test System: AMES SALMONELLA TYPHIMURIUM, Strain/Indicator: TA100, Metabolic Activation: RAT, LIVER, S-9, AROCLOR 1254, Method: STANDARD PLATE",inactive; negative
same,mutagenic call,"Test System: AMES SALMONELLA TYPHIMURIUM, Strain/Indicator: TA1535, Metabolic Activation: NONE, Method: STANDARD PLATE",inactive; negative
same,mutagenic call,"Test System: AMES SALMONELLA TYPHIMURIUM, Strain/Indicator: TA1535, Metabolic Activation: RAT, LIVER, S-9, AROCLOR 1254, Method: STANDARD PLATE",inactive; negative
same,mutagenic call,"Test System: AMES SALMONELLA TYPHIMURIUM, Strain/Indicator: TA1537, Metabolic Activation: NONE, Method: STANDARD PLATE",inactive; negative
same,mutagenic call,"Test System: AMES SALMONELLA TYPHIMURIUM, Strain/Indicator: TA1537, Metabolic Activation: RAT, LIVER, S-9, AROCLOR 1254, Method: STANDARD PLATE",inactive; negative
Nc1nc(N)nc(-c2ccccc2)n1,mutagenic call,[2],inactive; negative
same,mutagenic call,"Test System: AMES SALMONELLA TYPHIMURIUM, Strain/Indicator: TA98, Metabolic Activation: RAT, LIVER, S-9, PHENOBARBITAL AND BETA-NAPHTHOFLAVONE, Method: PREINCUBATION",inactive; negative
same,mutagenic call,[3],inactive; negative
same,mutagenic call,"Test System: AMES SALMONELLA TYPHIMURIUM, Strain/Indicator: TA100, Metabolic Activation: RAT, LIVER, S-9, PHENOBARBITAL AND BETA-NAPHTHOFLAVONE, Method: PREINCUBATION",inactive; negative
same,mutagenic call,"Test System: AMES SALMONELLA TYPHIMURIUM, Strain/Indicator: TA102, Metabolic Activation: NONE, Method: PREINCUBATION",inactive; negative
same,mutagenic call,"Test System: AMES SALMONELLA TYPHIMURIUM, Strain/Indicator: TA102, Metabolic Activation: RAT, LIVER, S-9, PHENOBARBITAL AND BETA-NAPHTHOFLAVONE, Method: PREINCUBATION",inactive; negative
same,mutagenic call,"Test System: AMES SALMONELLA TYPHIMURIUM, Strain/Indicator: TA104, Metabolic Activation: NONE, Method: PREINCUBATION",inactive; negative
same,mutagenic call,"Test System: AMES SALMONELLA TYPHIMURIUM, Strain/Indicator: TA104, Metabolic Activation: RAT, LIVER, S-9, PHENOBARBITAL AND BETA-NAPHTHOFLAVONE, Method: PREINCUBATION",inactive; negative
same,mutagenic call,[4],inactive; negative
same,mutagenic call,"Test System: AMES SALMONELLA TYPHIMURIUM, Strain/Indicator: TA1535, Metabolic Activation: RAT, LIVER, S-9, PHENOBARBITAL AND BETA-NAPHTHOFLAVONE, Method: PREINCUBATION",inactive; negative
same,mutagenic call,[5],inactive; negative
same,mutagenic call,"Test System: AMES SALMONELLA TYPHIMURIUM, Strain/Indicator: TA1537, Metabolic Activation: RAT, LIVER, S-9, SODIUM PHENOBARBITAL AND 5,6-BENZOFLAVONE, Method: PREINCUBATION",inactive; negative
same,mutagenic call,"Test System: E. COLI, Strain/Indicator: WP2UVRA/PKM101, Metabolic Activation: NONE, Method: PREINCUBATION",inactive; negative
same,mutagenic call,"Test System: E. COLI, Strain/Indicator: WP2UVRA/PKM101, Metabolic Activation: RAT, LIVER, S-9, SODIUM PHENOBARBITAL AND 5,6-BENZOFLAVONE, Method: PREINCUBATION",inactive; negative
same,mutagenic call,"Test System: E. COLI, Strain/Indicator: WP2UVRA, Metabolic Activation: NONE, Method: PREINCUBATION",inactive; negative
same,mutagenic call,"Test System: E. COLI, Strain/Indicator: WP2UVRA, Metabolic Activation: RAT, LIVER, S-9, PHENOBARBITAL AND BETA-NAPHTHOFLAVONE, Method: PREINCUBATION",inactive; negative
c1ccc2c(c1)-c1cc3ccccc3cc1[C@H]1O[C@@H]21,mutagenic call,[2],active; positive
same,mutagenic call,[6],active; positive
same,mutagenic call,[7],active; positive
same,mutagenic call,"Test System: CHINESE HAMSTER V-79, Strain/Indicator: V-79/8-AZAGUANINE, Metabolic Activation: NONE, Method: STANDARD PLATE",active; positive
same,mutagenic call,"Test System: UDS HUMAN FIBROBLASTS, Strain/Indicator: THY INCORP (NON-S-PHASE), Metabolic Activation: NONE, Method: AUTORADIOGRAPHY",active; positive

# Reference: PubChem BioAssay AID1259407 (Chemical Carcinogenesis Research Information System (CCRIS), 2018)
